Test results: PubChem BioAssay AID179 (DTP/NCI, 2004)
The source made the active and inactive calls.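 How the source made its calls: active means compounds giving half or more protection of infected cells from virus-caused growth loss, again on retest; inactive means the rest.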 Where a SMILES comes first, the peptide text is derived from it.

Tested on: CEM cells HIV-1 protection, formazan growth assay
Assay: NCI AIDS Antiviral Assay
Conditions: for IC50: measured here: growth of uninfected CEM cells
Outline: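 Steps: treat uninfected and HIV-1-infected human CEM cells at five drug levels; quantify growth by soluble formazan; retest any compound reaching 50% protection; classify actives from the retest.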

CCC12C=CCN3CCC4(c5cc(C6(C(=O)OC)CCCCCc7c6[nH]c6ccccc76)c(OC)cc5N(C)C4C(O)(C(=O)OC)C1OC(C)=O)C32 (stereo unspecified)
EC50: > 25.1 µM
IC50: 4.37 µM

CC(=O)/C=C/CCC(=O)/C=C/C(=O)OC(CCC(=O)/C=C/C(=O)O)CC(C)=O (stereo unspecified)
EC50: > 200 µM
IC50: 115 µM

C=CCC1(OCc2ccccc2)C(=O)C(=O)OC1C1COC(C)(C)O1 (stereo unspecified)
EC50: > 200 µM
IC50: > 200 µM

CC1(C)CNC(=O)C2(C=NC(C)(C)CNC(=O)C3(C=N1)CCCO3)CCCO2 (stereo unspecified)
EC50: > 25.1 µM
IC50: > 25.1 µM

O=C(NNC(=O)c1ccccc1Cl)c1ccccc1Cl
EC50: > 200 µM
IC50: > 200 µM

Sc1cccc2c(S)cccc12
EC50: > 200 µM
IC50: > 200 µM

COc1ccc(/C=C2\N=C(SC)N(CN3CCCCC3)C2=O)cc1
EC50: > 200 µM
IC50: > 200 µM

CN(C)c1ncnc2c1ncn2C1OC(CO)C(O)C1O (stereo unspecified)
outcome: inactive

COC(=O)c1nc(-c2ccc(Cl)c(Cl)c2)nc2ccc(Cl)cc12
outcome: inactive

CN(C)Cc1cc(C(=O)/C=C/c2c(F)cccc2Cl)cc(CN(C)C)c1O
EC50: > 20 µM
IC50: 4.68 µM

C=CCNC(=O)C(O)C(O)C(=O)NCC=C (stereo unspecified)
EC50: > 1100 µM
IC50: > 1100 µM

COc1ccc(N(C)C(=O)N(C)c2ccc([N+](=O)[O-])cc2)cc1
EC50: > 200 µM
IC50: 9.33 µM

COC(=O)C1CCC(=O)N1C(c1cc(OC)c(OC)c(OC)c1)c1cc(OC)c(OC)c(OC)c1 (stereo unspecified)
EC50: > 200 µM
IC50: 55 µM

NC(=O)Nn1c2c(c3c1CCCC3)CCCC2
outcome: inactive

Cc1cc(Br)ccc1N=Nc1c(C)nn(-c2ccccc2)c1-c1ccccc1
outcome: inactive

O=C(NNC(=O)c1cc(/C=C/c2cccc([N+](=O)[O-])c2)[nH]c(=S)n1)Nc1ccc(Cl)cc1
EC50: > 11 µM
IC50: > 11 µM

CCN(CC)CCC1CCCCN1CC(=O)N1c2ccccc2NC(=O)c2ccccc21 (stereo unspecified)
EC50: > 200 µM
IC50: > 200 µM

Cc1ccc(S(=O)(=O)c2ccc(C)cc2[N+](=O)[O-])cc1
EC50: > 24.5 µM
IC50: > 24.5 µM

CCCCC(O)(c1ccccc1)C(O)(c1ccccc1)c1c(F)c(F)c(F)c(F)c1F (stereo unspecified)
EC50: > 200 µM
IC50: 39.8 µM

CN(C)CC/C(=N\Nc1ccc(Cl)c(Cl)c1)c1ccccc1
outcome: inactive

Nc1nc(Cl)c(N)c(NCC2(CO)CCCC2)n1
EC50: > 200 µM
IC50: 102 µM

Nc1ncnc2c1ncn2[C@H]1CC[C@]2(CO)C[C@H]12
EC50: > 25.1 µM
IC50: > 25.1 µM

O=C(NNC(=S)NC1CC(c2ccccc2)Oc2ccccc21)c1ccccc1 (stereo unspecified)
outcome: inactive

O=C1c2c(ccc3c2CCC3)CC12Cc1cc3c(cc1C2)CCC3
EC50: > 200 µM
IC50: > 200 µM

CCOC(=O)NNP(=O)(NNC(=O)OCC)c1ccccc1
EC50: > 110 µM
IC50: > 110 µM

Nc1cc2[nH]c(=O)c(=O)[nH]c2cc1N
EC50: > 200 µM
IC50: 63.1 µM

Cc1nc2c(o1)C(=Nc1ccccc1)c1nc(C)oc1C2=Nc1ccccc1
outcome: inactive

COC(=O)CNCC1OC2OC(C)(C)OC2C1N=[N+]=[N-] (stereo unspecified)
EC50: > 200 µM
IC50: > 200 µM

CN1CCC23c4ccccc4NC1C21CCN(C)C3Nc2ccccc21
EC50: > 724 µM
IC50: 617 µM

O=C(Cc1ccccc1)NN1C(=O)C(Cl)C1c1ccc(O)cc1 (stereo unspecified)
EC50: > 204 µM
IC50: 170 µM

CCOC(=O)/C(=C\c1ccccc1)C(=O)O
EC50: > 1120 µM
IC50: 240 µM

CCOC(=O)/C(=C\c1ccnc2ccccc12)P(=O)(OCC)OCC
EC50: > 200 µM
IC50: 3.31 µM

COC(=O)c1c/c(=N\NC(=O)CC(=O)Nc2ccccc2OC)c2ccccc2o1
EC50: > 229 µM
IC50: > 229 µM

Nc1cccc(OCC2CCCN3CCCCC23)c1 (stereo unspecified)
EC50: > 200 µM
IC50: 13.8 µM

CC12CCC([C@H](N3CCOCC3)/C1=N\OCCN1CCCC1)C2(C)C (stereo partly specified)
EC50: > 251 µM
IC50: 138 µM

COc1ccccc1-n1c(=O)n(C)c(=O)n1C(C)(C)C
EC50: > 200 µM
IC50: > 200 µM

COc1ccc2c(c1)C(=O)CC=C(C(=O)O)N2
EC50: > 200 µM
IC50: > 200 µM

S=c1n(-c2ccc(Cl)cc2)c2nc3ccccc3nc(/c2=N\Nc2ccccc2)n1-c1ccc(Br)cc1
EC50: > 61.7 µM
IC50: 31.6 µM

CCOC(=O)C1(C(=O)OCC)CC1(C(=O)OCC)C(=O)OCC
outcome: inactive

COC(=O)c1ccccc1/C=C1\Cc2c(ccc3c2CCC3)C1=O
EC50: > 151 µM
IC50: > 151 µM

CCOC(=O)CNC(=O)C(Cc1ccccc1)NC(=O)C(N)CC(=O)O (stereo not drawn) (H-Asp-Phe-Gly-OEt; configuration not given here)
EC50: > 200 µM
IC50: > 200 µM

Cc1cc(C)c2c(c1)C(=O)C1(C2)Cc2c(ccc(C)c2C)C1=O (stereo unspecified)
EC50: > 100 µM
IC50: > 100 µM

O=c1c2[nH]cnc2n(-c2ccccc2)c(=S)n1-c1ccccc1
EC50: > 200 µM
IC50: > 200 µM

O=C1Sc2ccccc2C(=O)N2CS(=O)CC12 (stereo unspecified)
EC50: > 100 µM
IC50: > 100 µM

c1scc2c1COCCOCCOCCOCCOCCOC2
EC50: > 724 µM
IC50: 646 µM

COCCCN1CC(=O)N2Cc3ccccc3CN2C(=O)C1
outcome: inactive
IC50: > 200 µM

COc1ccc(NC(C)=O)c(Cl)c1
EC50: > 1260 µM
IC50: > 1260 µM

[NH-]C(CCC(N)=O)C(=O)O.[NH-]C(CCCCN)C(=O)O.[Zn+2] (stereo unspecified)
EC50: > 200 µM
IC50: > 200 µM

CCOC(=O)C(NCc1cccc(C(F)(F)F)c1)(NC(=O)c1ccccc1)C(F)(F)F (stereo unspecified)
EC50: > 200 µM
IC50: 18.6 µM

Cc1ccc(S(=NS(=O)(=O)c2ccc(C)cc2)c2ccc(C)cc2)cc1
EC50: > 49 µM
IC50: > 49 µM

COc1c2c(nc3ccccc13)-c1cc3c(c(=O)n1C2)COC(=O)C3(O)CC(=O)N1CCOCC1 (stereo unspecified)
EC50: > 10 µM
IC50: 0.741 µM

COc1cc2c(nn1)CCCC2
outcome: inactive

CC1=CC=C2c3ccccc3C=CN2C(=O)C1
EC50: > 200 µM
IC50: 89.1 µM

CC(C)(C)OC(=O)C(C1NC2C(=O)OCC2(CO)S1)N1C(=O)c2ccccc2C1=O (stereo unspecified)
EC50: > 200 µM
IC50: > 200 µM

CC(=O)c1c2c(cc3c1CC1(C3)Cc3cc4c(c(C(=O)O)c3C1)CCCC4)CCCC2 (stereo unspecified) (tested in a mixture with another compound)
EC50: > 200 µM
IC50: 38.9 µM

CCCC(=O)NC(Nc1ccc(S(=O)(=O)Nc2cc(C)on2)cc1)(C(=O)OCC)C(F)(F)F (stereo unspecified)
outcome: inactive

N#C/C(N)=C(\C#N)NC=NCCO
EC50: > 200 µM
IC50: > 200 µM

C(=C\c1ccccc1)/c1ccccc1
EC50: > 200 µM
IC50: > 200 µM

COc1ccc(NC(=O)C(=O)C2CNC(=O)NC2=O)c(OC)c1 (stereo unspecified)
EC50: > 209 µM
IC50: > 209 µM

O=C1C=CC(=O)N1n1c(-c2ccccc2)n[nH]c1=O
EC50: 95.5 µM
IC50: 955 µM

Cc1ccc(NC(=O)C(=O)C2C(=O)NC(=O)NC2=O)cc1C
EC50: > 117 µM
IC50: > 117 µM

Cc1cc(C)c2cc(N)c(Cl)nc2n1
EC50: > 200 µM
IC50: 145 µM

Nc1ncnc2c1ncn2C1CCC(=O)C1 (stereo unspecified)
EC50: > 1150 µM
IC50: 174 µM

O=c1oc2c(-c3ccccc3)cccc2c(O)c1-c1ccccc1
EC50: > 200 µM
IC50: 85.1 µM

CC[C@@]12CCC(=S)N(CCSc3ccccc3)[C@@H]1c1c(n(S(=O)(=O)c3ccc(OC)cc3)c3ccccc13)CC2
EC50: > 200 µM
IC50: > 200 µM

COc1cc(C=Nc2ccc(Oc3ccc(Cl)cc3)c(Cl)c2)cc(OC)c1OC
EC50: > 200 µM
IC50: 30.9 µM

CCOC(=O)C(CC1OCCO1)C1=NC(C)(C)CC(C)O1 (stereo unspecified)
EC50: > 200 µM
IC50: > 200 µM

COc1cc2c(c(C)c1O)[C@H]1COc3ccccc3[C@H]1O2
EC50: > 87.1 µM
IC50: 15.8 µM

O=C(O)CCCCCCC[C@H]1S[C@H]1CCCCCCO
outcome: inactive

CN(C)CCNC(=O)Cc1ccccc1Nc1c(Cl)cccc1Cl
EC50: > 200 µM
IC50: 30.2 µM

O=c1ccc2c([N+](=O)[O-])cc([N+](=O)[O-])c(O)c2[nH]1
outcome: inactive

Cc1[nH]c(=O)n2c(C)nnc2c1C(=O)O
outcome: inactive

Cc1cc(C(=C2C=CC(=Nc3ccc(S(=O)(=O)O)cc3)C=C2)c2ccc(Nc3ccc(S(=O)(=O)O)cc3)cc2)cc(S(=O)(=O)O)c1N
EC50: 30.2 µM
IC50: 49 µM

CCOC(=O)C1=C(Nc2cccc3ccccc23)OCC1=O
outcome: inactive

O=C(NNc1nc2ccccc2n2cccc12)c1cnccn1
EC50: > 2 µM
IC50: 0.417 µM

COc1ccc(-n2cnc3c(NC(Cc4ccccc4)C(=O)O)ncnc32)cc1 (stereo unspecified)
EC50: > 200 µM
IC50: 2 µM

COc1nc(OC)n(C)c(=O)c1OP(=O)(OC)OC
EC50: > 200 µM
IC50: > 200 µM

CCC/C=[N+](\[O-])[C@@H]1CC(n2cc(C)c(=O)[nH]c2=O)OC1CO[Si](C)(C)C(C)(C)C (stereo partly specified)
EC50: > 200 µM
IC50: 107 µM

CCOc1cnn(-c2ccccc2)c(=O)c1SCc1ccc(Cl)c(Cl)c1
EC50: > 33.1 µM
IC50: 18.6 µM

C=C(C)C(=O)NC(N)=NC#N
EC50: > 1620 µM
IC50: 28.8 µM

O=[N+]([O-])c1cccc[c]1[Sb](=[O])([OH])[OH]
EC50: > 200 µM
IC50: 7.41 µM

O=C(/C=C(\N=P(c1ccccc1)(c1ccccc1)c1ccccc1)C(F)(F)C(F)(F)C(F)(F)C(F)(F)C(F)(F)C(F)(F)C(F)(F)F)c1ccccc1
EC50: > 200 µM
IC50: > 200 µM

CC(=O)Oc1cc2c(c3ncccc13)OC(C)(C)C2
EC50: > 200 µM
IC50: 11 µM

O=C1C2=C(c3ccccc31)C(c1ccc(Cl)cc1)N1C(=O)CCSC1=N2 (stereo unspecified)
EC50: > 49 µM
IC50: > 49 µM

CCNC(=S)N/N=C(/c1ccc(OC)cc1)P(=O)(OCC)OCC
EC50: > 50.1 µM
IC50: > 50.1 µM

C=C1CC[N+]2(CCCCCC)CCCC12 (stereo unspecified)
EC50: > 871 µM
IC50: 126 µM

Cc1ccc(Cc2n[nH]c(=O)n2Nc2ccccc2)cc1
EC50: > 200 µM
IC50: > 200 µM

N#Cc1cc2c(n(NS(=O)(=O)c3ccccc3)c1=O)CCC2
EC50: > 200 µM
IC50: > 200 µM

COc1ccc(C(CC(=O)O)c2ccccc2)cc1 (stereo unspecified)
EC50: > 708 µM
IC50: 501 µM

Nc1nnc(N)n1NC(=O)C(=O)Nc1ccc([N+](=O)[O-])cc1
EC50: > 151 µM
IC50: > 151 µM
